GI50 and TGI data for 28 compounds are collected here from PubChem BioAssay (NCI).

Where “and” joins values, the source holds several entries; their conditions need not be identical. Identical values can stand only once.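 Cultured in 96-well plates, cells were exposed to test compound for 48 hours across five concentrations. Here, GI50 denotes the concentration required for 50% inhibition of growth. TGI: concentration producing complete growth inhibition.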

The first test relates to NCI/ADR-RES ovarian. The test is described as follows: NCI tumour cell line growth inhibition, 48 h.
Consider `COC(=O)C1OC(O[C@H]2CCC3(C)C(CCC4(C)C3CC=C3C5CC(C)(C)CCC5(C(=O)O)CC[C@]34C)C2(C)C)C(O)C(OC2OC(CO)C(O)C(O)C2O)C1O` (stereo partly drawn), for which the GI50 is 7.24 µM and the TGI worked out at 13.5 µM.

The next test relates to A498 renal. The test is described as follows: NCI tumour cell line growth inhibition, 48 h.
In the case of `CCOc1ccc(NC(=O)CC2Sc3ccccc3NC2=O)cc1` (stereo not drawn), the TGI was more than 100 µM.
For `O=C(c1ccc2ccccc2c1)c1c(C(F)(F)F)n([O-])c2cc(Cl)c(Cl)cc2[n+]1=O`, the GI50 is 1.96 µM and the TGI came out at 4.68 µM.
The compound `Cc1ccccc1C(C#N)C(=O)C(=O)Nc1nc([N+](=O)[O-])cs1` (stereo not drawn) yielded a TGI of more than 100 µM.
As for `COC(=O)C(c1[nH]nc2ccccc12)C(C(=O)OC)c1[nH]nc2ccccc12` (stereo not drawn), the TGI is more than 100 µM.
In the case of `C#CCNC(=O)NC(CCCNC(=O)OCc1ccccc1)C(=O)OCc1ccccc1` (stereo not drawn), the TGI is more than 100 µM.
As to `COc1ccc2cc1Oc1ccc(cc1)C[C@H]1c3cc(c(OC)cc3CCN1C)Oc1c(OC)c(OC)cc3c1[C@H](C2)N(C)CC3`, the GI50 was 5.98 µM; the TGI was 13.2 µM and 19.2 µM and > 100 µM.
As for `O=c1[nH]c2ccccc2cc1C(Cl)=C(Cl)Cl`, the TGI is more than 100 µM.
On the same count and under the same terms, next, `O=[N+]([O-])[C@@H]1C2C=CC(C2)[C@H]1Cl` (stereo partly drawn): more than 100 µM.
Regarding `CCc1c2c(nc3cc4c(cc13)OCO4)-c1cc3c(c(=O)n1C2)COC(=O)[C@]3(O)CC`, the GI50 was 0.0097 µM and 0.0397 µM; the TGI was 0.428 µM and 0.834 µM.
With `COC(=O)C(C#N)=C1c2ccccc2Oc2ccccc21`, the TGI was more than 100 µM.
Turning to `N#CC1(c2nc3ccccc3o2)C(=O)C(=O)N(C2C3CC4CC(C3)CC2C4)C(=O)C1=O` (stereo not drawn), the TGI is more than 100 µM.
Still for that read-out and setting: for `O=C1NC(c2ccc(O)cc2)C2CCC1C2` (stereo not drawn) the value was more than 100 µM; for `C=CC1=CSNN1`, more than 100 µM; for `O=C(C#Cc1c[nH]c(=O)[nH]c1=O)c1ccccc1Cl`, 36.3 µM.
Take `COc1ccc(/C=C/C=C(/C#N)C(N)=S)cc1`: the GI50 was 25.1 µM and the TGI was 56.5 µM.
`CC(=O)OC1=C2CC3(C)OC(=O)CC(C)(C)C3=CC=C2C=C(C(C)C)C1=O` (stereo not drawn): the TGI was determined as 2.99 µM.
`O=c1cc(-c2cccc(F)c2)[nH]c2cc3c(cc12)OCO3` displayed a TGI of more than 9.41 µM.
Still for that read-out and setting: for `O=C1NC2(CCCC2)C(=O)C12CCCC2` the value was more than 100 µM; for `O=C1CCCN(c2ccccc2)N1`, more than 100 µM.
Same read-out and setting: next, `CN(C)/C(=N/C(=S)Nc1ccccc1)SCc1ccccc1`: more than 100 µM; `CCOC(=O)C1=C(C)Nc2ccccc2S1`: more than 100 µM.
Regarding `CCOC(=O)CC1=Nc2ccccc2SC1`, the TGI is more than 100 µM.
On the same count and under the same terms, next, `C=CCSC[C@H](NC(=O)COc1ccccc1)C(=O)NC(C(=O)OCc1ccc([N+](=O)[O-])cc1)=C(C)C`: more than 100 µM.

The subject of the next test is K-562 leukemia. The test is described as follows: NCI tumour cell line growth inhibition, 48 h.
Turning to `CCOc1ccc(NC(=O)CC2Sc3ccccc3NC2=O)cc1` (stereo not drawn), the TGI is more than 100 µM.
On the same count and under the same terms, for `Cn1cc(NC(=O)c2cc(NC(=O)CCCCCCCCCCC(=O)Nc3cc(C(=O)Nc4cc(C(=O)NCCC(=N)N)n(C)c4)n(C)c3)cn2C)cc1C(=O)NCCC(=N)N` the value was more than 100 µM.
In the case of `O=C(c1ccc2ccccc2c1)c1c(C(F)(F)F)n([O-])c2cc(Cl)c(Cl)cc2[n+]1=O`, the GI50 was 1.56 µM and the TGI came to 3.12 µM.
Consider `COC(=O)C(c1[nH]nc2ccccc12)C(C(=O)OC)c1[nH]nc2ccccc12` (stereo not drawn), for which the TGI is more than 100 µM.
Still for that read-out and setting: next, `C#CCNC(=O)NC(CCCNC(=O)OCc1ccccc1)C(=O)OCc1ccccc1` (stereo not drawn): more than 100 µM.
The same measure, in the same setting: for `COc1ccc2cc1Oc1ccc(cc1)C[C@H]1c3cc(c(OC)cc3CCN1C)Oc1c(OC)c(OC)cc3c1[C@H](C2)N(C)CC3` the value was 11.1 µM and > 100 µM.
The same measure, in the same setting: for `O=c1[nH]c2ccccc2cc1C(Cl)=C(Cl)Cl` the value was more than 100 µM; for `O=[N+]([O-])[C@@H]1C2C=CC(C2)[C@H]1Cl` (stereo partly drawn), more than 100 µM.
With `CCc1c2c(nc3cc4c(cc13)OCO4)-c1cc3c(c(=O)n1C2)COC(=O)[C@]3(O)CC`, the TGI is more than 100 µM.
The same measure, in the same setting: for `COC(=O)C(C#N)=C1c2ccccc2Oc2ccccc21` the value was more than 100 µM; for `N#CC1(c2nc3ccccc3o2)C(=O)C(=O)N(C2C3CC4CC(C3)CC2C4)C(=O)C1=O` (stereo not drawn), more than 100 µM; for `O=C1NC(c2ccc(O)cc2)C2CCC1C2` (stereo not drawn), more than 100 µM.
Same read-out and setting: for `CCOC(=O)C1(CC)CCCCC(=O)N1` (stereo not drawn) the value was more than 100 µM; for `C=CC1=CSNN1`, more than 100 µM.
As for `O=C(C#Cc1c[nH]c(=O)[nH]c1=O)c1ccccc1Cl`, the TGI was more than 100 µM.
Turning to `COc1ccc(/C=C/C=C(/C#N)C(N)=S)cc1`, the GI50 is 29.9 µM and the TGI was more than 100 µM.
The corresponding values for `COc1ccc(-c2cc(-c3cc(Cl)ccc3Cl)nc3[nH]c(-c4cc(F)c(Cl)cc4Cl)cc(=O)c23)cc1` are 29.3 µM and more than 100 µM.
`CC(=O)OC1=C2CC3(C)OC(=O)CC(C)(C)C3=CC=C2C=C(C(C)C)C1=O` (stereo not drawn) had a TGI of more than 100 µM.
For the compound `O=c1cc(-c2cccc(F)c2)[nH]c2cc3c(cc12)OCO3`, the GI50 was 0.338 µM; the TGI was 75 µM and > 16.4 µM.
`COC(=O)C1OC(O[C@H]2CCC3(C)C(CCC4(C)C3CC=C3C5CC(C)(C)CCC5(C(=O)O)CC[C@]34C)C2(C)C)C(O)C(OC2OC(CO)C(O)C(O)C2O)C1O` (stereo partly drawn): the GI50 is 8.17 µM and the TGI worked out at 26.6 µM.
`O=C1NC2(CCCC2)C(=O)C12CCCC2`: the TGI was more than 100 µM.
Still for that read-out and setting: next, `O=C1CCCN(c2ccccc2)N1`: more than 100 µM; `CN(C)/C(=N/C(=S)Nc1ccccc1)SCc1ccccc1`: more than 100 µM.
With `CCOC(=O)C1=C(C)Nc2ccccc2S1`, the TGI was more than 100 µM.
Compound `C=CCSC[C@H](NC(=O)COc1ccccc1)C(=O)NC(C(=O)OCc1ccc([N+](=O)[O-])cc1)=C(C)C` had a TGI of more than 100 µM.

The next test relates to OVCAR-4 ovarian. In words: NCI tumour cell line growth inhibition, 48 h.
Consider `CCOc1ccc(NC(=O)CC2Sc3ccccc3NC2=O)cc1` (stereo not drawn), for which the TGI is 39.8 µM.
Still for that read-out and setting: next, `Cn1cc(NC(=O)c2cc(NC(=O)CCCCCCCCCCC(=O)Nc3cc(C(=O)Nc4cc(C(=O)NCCC(=N)N)n(C)c4)n(C)c3)cn2C)cc1C(=O)NCCC(=N)N`: more than 100 µM.
On to `C1COCCN1.C1COCCN1.N.N.[Cl-].[Pt+2]`, for which the GI50 was more than 100 µM and the TGI is more than 100 µM.
